Consider ten molecules from patent US6472516B1, “Progestin-regulated gene” (The Garvan Institute of Medical Research, priority 1995, dated 2002).

For assay [1], the system named is PRG1 mRNA. As to the kind of experiment: Northern analysis of PRG1 mRNA expression in T-47D cells. To be noted: for Induction of PRG1 mRNA by mitogen: T-47D growth-arrested by serum deprivation, 3 or 4 h, insulin 1.7 μM, heregulin 5 nM, bFGF 55 pM; for Relative mRNA Expression: relative to cells maintained in serum-free medium. Type of assay: cell-based, human. How it is done: (§1) The sources and maintenance of the human breast cancer cell lines used in this study were as described previously (33). 184 and 184B5 normal breast epithelial cells were the kind gift of Dr. M. Stampfer (University of California, Berkley, Calif.) and were maintained in mammary epithelial growth medium (Clonetics, San Diego, Calif.). Tissue culture experiments in serum-free medium were performed as previously described (6, 27). Briefly, T-47D cells were taken from stock cultures and passaged for 6 days in phenol red-free RPMI medium supplemented with 10% charcoal-treated fetal calf serum (FCS). During this time the cells received two changes of medium at 1- to 3-day intervals. The cells were replated into replicate 150 cm^2 flasks in medium containing 10% charcoal-treated FCS and the medium replaced with serum-free medium on the next two days. Serum-free medium was supplemented with 300 nM human transferrin. In experiments involving ORG 2058 the final serum-free medium contained 10 μg/ml (1.7 μM) human insulin. Three days after completion of these pre-treatments growth factor, steroid, steroid antagonist or cycloheximide were added. Control flasks received vehicle to the same final concentration. Cell cycle phase distribution was determined by analytical DNA flow cytometry, as previously described (6, 34).
Tissue culture experiments in serum-containing medium were performed as previously described (34). The experiment with livial and actinomycin D was as for experiments in serum-containing medium except that the medium contained 5% charcoal-treated FCS. Actinomycin D was added at the same time as livial. The experiment involving “estrogen rescue” was performed as described (30). Briefly, MCF-7 cells were cultured in medium containing 5% FCS for 2 days. The antiestrogen ICI 182780 (10 nM) was then added to the medium for 48 h. after which the growth-arrested cells were treated with 100 nM 17β-estradiol, also added directly to the medium, resulting in the synchronous re-entry of cells into the cell cycle.
Cells harvested from triplicate 150 cm^2 flasks were pooled and RNA extracted by a guanidinium-isothiocyanate-cesium chloride procedure and Northern analysis was performed as previously described with 20 μg of total RNA per lane (6, 11). The membranes were hybridized overnight at 50° C. with probes labelled with [α-^32P]dCTP (Amersham Australia Pty Ltd, Castle Hill, Australia) using the Random Prime Labelling Kit (Promega, Sydney, Australia). The membranes were washed at a highest stringency of 0.2× SSC (30 mM NaCl. 3 mM sodium citrate [pH 7.0])+ 1% sodiwn dodecyl sulfate at 65° C. and exposed to Kodak X-OMAT or BIOMAX film at −70° C. Human multiple tissue Northern blots (Clontech Laboratories, Inc. Palo Alto, Calif.) were hybridized under conditions recommended by the manufacturer. The mRNA abundance was quantified by densitometric analysis of autoradiographs using Molecular Dynamics Densitometer and software (Molecular Dynamics, Sunnyvale, Calif.). The accuracy of loading was estimated by hybridizing membranes with a [γ-^32P]ATP end-labelled oligonucleotide complementary to 18S rRNA.

Assay [2] relates to PRG1 mRNA. Briefly: Northern analysis of PRG1 mRNA expression in MCF-7 cells. It counts as cell-based, human. As to the method:
as §1
(§2) Tissue culture experiments in serum-containing medium were performed as previously described (34). The experiment with livial and actinomycin D was as for experiments in serum-containing medium except that the medium contained 5% charcoal-treated FCS. Actinomycin D was added at the same time as livial. The experiment involving “estrogen rescue” was performed as described (30). […]
(§3) Cells harvested from triplicate 150 cm^2 flasks were pooled and RNA extracted by a guanidinium-isothiocyanate-cesium chloride procedure and Northern analysis was performed as previously described with 20 μg of total RNA per lane (6, 11). […] The mRNA abundance was quantified by densitometric analysis of autoradiographs using Molecular Dynamics Densitometer and software (Molecular Dynamics, Sunnyvale, Calif.). […]

Assay [3] concerns PRG1 mRNA. Briefly: Northern analysis of PRG1 mRNA expression in MDA-MB-231 cells. It counts as cell-based, human. How it is done: as §1, §2, §3
In another assay the test system is T-47D cells. The note with it: previously reported (refs 32, 54); cited from earlier work.
The mark [4] stands for this setting: T-47D, insulin-supplemented serum-free medium, 10 nM.

Marks after values point to notes of the source that are not given here. Numbered stars: 1 amine (or outer) side, 2 acyl side, 3 side chain; on linkers, the order of the positions; unused ones are H or OH. Bridge positions count the residues as written; N and C are the ends. Square brackets hold non-standard residues; d marks the D form. Peptide text beside a SMILES is read from it. I, II: the chains in the order shown. Actinocin(9to1) = Cc1c2oc3c(C)ccc(C(=O)[*:1])c3nc-2c(C(=O)[*:2])c(N)c1=O; NMeV = CN[C@H](C(=O)O)C(C)C; Sar = CNCC(=O)O

As to `CCC1CC2C3CCC4=CC(=O)CCC4C3CCC2(C)C1C(=O)CO` (stereo not drawn) [ORG 2058, 16α-ethyl-21-hydroxy-19-norpregn-4-en-3,20-dione], the “Superinduction of PRG1 mRNA relative to control” value in the assay with PRG1 mRNA [1] (T-47D, ORG 2058 10 nM in presence of cycloheximide 20 μg/ml, 3 h, experiment of FIG. 8) stood at 12 fold. Also, in the assay with PRG1 mRNA [1] (setting [4]), the “Time by which PRG1 mRNA had returned to control levels” value is listed as at most 12 h and the “Time of maximal PRG1 mRNA induction” value amounted to 3 h. Also, the “Maximal PRG1 mRNA induction relative to time-matched control” value with PRG1 mRNA [1] (T-47D, insulin-supplemented serum-free medium, 10 nM, 3 h, experiment of FIG. 5) amounted to 4.4 fold. In addition, the “PRG1 mRNA increase above control mRNA levels” value with PRG1 mRNA [2] (MCF-7 (PR-positive), 5% FCS, 10 nM, 3 h) is reported as “approximately 2 fold”. Besides, the “PRG1 mRNA decrease below control mRNA levels” value in the assay on PRG1 mRNA [3] (MDA-MB-231 (PR-negative), 10 nM, 3 h) is reported as “approximately 30%”. For the same molecule, the “PRG1 mRNA level at 6 h after the decrease at 3 h (in words)” value in the assay on PRG1 mRNA [3] (MDA-MB-231, 6 h, ORG 2058 10 nM, dexamethasone 100 nM) is “recovery”.

In the case of bFGF: human recombinant bFGF, the “Induction of PRG1 mRNA by mitogen” value in the assay on PRG1 mRNA [1] was 1.9 fold. Further, in the assay with PRG1 mRNA [1] (T-47D, at 3 h), the “Relative mRNA Expression” value was 2.6^† at 3 h. Besides, the “Potency as mitogen in stimulating cell cycle progression” value (“Potency as mitogen” for short) with T-47D cells is on record as “equipotent”.

Take `Cc1c2oc3c(C)ccc(C(=O)N[C@@H]4C(=O)N[C@H](C(C)C)C(=O)N5CCC[C@H]5C(=O)N(C)CC(=O)N(C)[C@@H](C(C)C)C(=O)O[C@@H]4C)c3nc-2c(C(=O)N[C@@H]2C(=O)N[C@H](C(C)C)C(=O)N3CCC[C@H]3C(=O)N(C)CC(=O)N(C)[C@@H](C(C)C)C(=O)O[C@@H]2C)c(N)c1=O` [actinomycin D] (I: T[dV]P[Sar][NMeV] / II: T[dV]P[Sar][NMeV]; ester I:1-I:C, II:1-II:C; linker I:N-II:N via Actinocin(9to1)): the “Effect on progestin induction of PRG1 mRNA” value with PRG1 mRNA [1] (T-47D, actinomycin D 5 μg/ml with livial 10 nM) is “blocked”.

For `C[C@@H]1C[C@H]2[C@@H]3CCC4=CC(=O)C=C[C@]4(C)[C@@]3(F)[C@@H](O)C[C@]2(C)[C@@]1(O)C(=O)CO` [dexamethasone, 9-fluro-11,17,21-trihydroxy-16-methylpregn-1,4-diene-3,20-dione], the “PRG1 mRNA as percent of control levels” value with PRG1 mRNA [3] (MDA-MB-231, 100 nM, 3 h) is “approximately 60 % of control”.

In the case of `C[C@]12CC[C@@H]3c4ccc(O)cc4CC[C@H]3[C@@H]1CC[C@@H]2O` [17β-estradiol], the “Relative mRNA Expression” value in the assay on PRG1 mRNA [2] (MCF-7, at 4 h, after ICI 182 780 pre-treatment for 48 h, relative to antiestrogen treated control) is reported as 2.0^‡ at 4 h. In addition, the “Induction of PRG1 mRNA by estrogen rescue” value in the assay with PRG1 mRNA [2] (MCF-7 growth-arrested by ICI 182780 (10 nM, 48 h), then 100 nM 17β-estradiol, 4 h) worked out at 2.0 fold.

Consider “insulin: human insulin, Actrapid; CSL-Novo”, for which the “Induction of PRG1 mRNA by mitogen” value with PRG1 mRNA [1] turned out to be 2.8 fold. The “Relative mRNA Expression” value in the assay with PRG1 mRNA [1] (T-47D, at 4 h) is reported as 2.8^† at 4 h. Further, the “Potency as mitogen” value in the assay on T-47D cells is listed as “equipotent”.

Turning to `C#C[C@]1(O)CC[C@H]2[C@@H]3[C@H](C)CC4=C(CCC(=O)C4)[C@H]3CC[C@@]21C` [livial, (7α, 17α)-17-hydroxy-7-methyl-19-norpregn-5(10)-en-20-yn-3-one], in the assay on PRG1 mRNA [1] (T-47D, 5% charcoal-treated FCS, 10 nM), the “PRG1 mRNA induction (in words)” value is “induced”. Besides, the “PRG1 mRNA induction in presence of transcription inhibitor” value with PRG1 mRNA [1] (T-47D, 5% charcoal-treated FCS, livial 10 nM with actinomycin D 5 μg/ml) is “not induced”.

Turning to `C[C@@H]1C[C@@H]([C@H](O)CC2CC(=O)NC(=O)C2)C(=O)[C@@H](C)C1` [cycloheximide, Cycloheximide], the “Effect on PRG1 mRNA, compound alone” value in the assay on PRG1 mRNA [1] (T-47D, cycloheximide 20 μg/ml alone, 3 h) was “increase of PRG1 mRNA to a level similar to that achieved by ORG 2058 alone”. The “Effect on progestin-mediated induction of PRG1 mRNA” value in the assay with PRG1 mRNA [1] (T-47D, cycloheximide 20 μg/ml with ORG 2058 10 nM, 3 h) is listed as “failed to block”.

heregulin: the “Induction of PRG1 mRNA by mitogen” value in the assay with PRG1 mRNA [1] is reported as 2.6 fold. In the assay on PRG1 mRNA [1] (T-47D, at 4 h), the “Relative mRNA Expression” value is 1.9^† at 4 h. Besides, the “Potency as mitogen” value with T-47D cells is reported as “one of the most potent mitogens”.

Take `CC#C[C@]1(O)CC[C@H]2[C@@H]3CCC4=CC(=O)CCC4=C3[C@@H](c3ccc(N(C)C)cc3)C[C@@]21C` [RU 486]: in the assay with PRG1 mRNA [1] (T-47D, serum-free medium with insulin, 100 nM, 3 h), the “Effect on PRG1 mRNA levels, compound alone” value is “no effect”.
